Laboratory results as given in the NIST ThermoML archive (doi:10.1021/je400803f).

Test: xn = mol fraction of the nth substance listed
Conditions: 101 kPa, Liquid, Vibrating tube method

CCNC=O [N-ethylformamide] + CCCC[N+]1(C)CCCC1.FC(F)(F)C(F)(F)[P-](F)(F)(F)(C(F)(F)C(F)(F)F)C(F)(F)C(F)(F)F
mass density [kg/m3]
Conditions | 293.15 K | 298.15 K | 303.15 K | 308.15 K | 313.15 K | 318.15 K | 323.15 K
x2 = 0.0355 | 1046.38 | 1042.01 | 1037.61 | 1033.05 | 1028.58 | 1024.03 | 1019.35
x2 = 0.0753 | 1128.67 | 1124.07 | 1119.47 | 1114.62 | 1109.94 | 1105.19 | 1100.26
x2 = 0.0995 | 1169.56 | 1164.94 | 1160.15 | 1155.23 | 1150.34 | 1145.54 | 1140.56
x2 = 0.1508 | 1240.4 | 1235.52 | 1230.53 | 1225.54 | 1220.42 | 1215.44 | 1210.24
x2 = 0.2001 | 1293.64 | 1288.61 | 1283.5 | 1278.35 | 1273.19 | 1267.97 | 1262.79
x2 = 0.3045 | 1375.94 | 1370.73 | 1365.53 | 1360.23 | 1354.95 | 1349.61 | 1344.26
x2 = 0.3996 | 1429.28 | 1424.04 | 1418.68 | 1413.37 | 1407.95 | 1402.56 | 1397.21
x2 = 0.5028 | 1472.71 | 1467.38 | 1462.01 | 1456.63 | 1451.21 | 1445.76 | 1440.28
x2 = 0.5527 | 1489.92 | 1484.53 | 1479.12 | 1473.75 | 1468.31 | 1462.86 | 1457.36
x2 = 0.5989 | 1504.15 | 1498.78 | 1493.4 | 1487.95 | 1482.48 | 1477.03 | 1471.54
x2 = 0.7015 | 1531.11 | 1525.64 | 1520.2 | 1514.75 | 1509.27 | 1503.82 | 1498.32
x2 = 0.7983 | 1552.06 | 1546.66 | 1541.23 | 1535.76 | 1530.25 | 1524.73 | 1519.18
x2 = 0.8866 | 1568.75 | 1563.32 | 1557.82 | 1552.35 | 1546.84 | 1541.33 | 1535.77
x2 = 0.951 | 1580.11 | 1574.66 | 1569.19 | 1563.71 | 1558.18 | 1552.64 | 1547.05

CCCC[N+]1(C)CCCC1.FC(F)(F)C(F)(F)[P-](F)(F)(F)(C(F)(F)C(F)(F)F)C(F)(F)C(F)(F)F + CN(C)C=O
mass density [kg/m3]
Conditions | 293.15 K | 298.15 K | 303.15 K | 308.15 K | 313.15 K | 318.15 K | 323.15 K
x1 = 0.0165 | 993.84 | 988.9 | 983.96 | 978.95 | 973.88 | 968.76 | 963.52
x1 = 0.0379 | 1045.32 | 1040.31 | 1035.26 | 1030.17 | 1024.98 | 1019.76 | 1014.46
x1 = 0.0636 | 1098.24 | 1093.11 | 1087.96 | 1082.78 | 1077.52 | 1072.2 | 1066.82
x1 = 0.0999 | 1160.65 | 1155.44 | 1150.21 | 1144.9 | 1139.55 | 1134.13 | 1128.66
x1 = 0.1381 | 1214.48 | 1209.17 | 1203.86 | 1198.5 | 1193.09 | 1187.58 | 1182.02
x1 = 0.2002 | 1284.15 | 1278.78 | 1273.37 | 1267.93 | 1262.4 | 1256.85 | 1251.25
x1 = 0.3038 | 1367.83 | 1362.38 | 1356.95 | 1351.43 | 1345.95 | 1340.13 | 1334.59
x1 = 0.3944 | 1420.86 | 1415.36 | 1409.86 | 1404.36 | 1398.78 | 1393.18 | 1387.5
x1 = 0.4946 | 1465.66 | 1460.2 | 1454.71 | 1449.18 | 1443.63 | 1438.04 | 1432.36
x1 = 0.5997 | 1502.25 | 1496.77 | 1491.29 | 1485.78 | 1480.25 | 1474.66 | 1469.03
x1 = 0.6972 | 1529.32 | 1523.85 | 1518.39 | 1512.87 | 1507.34 | 1501.77 | 1496.17
x1 = 0.7887 | 1550.58 | 1545.07 | 1539.56 | 1534.11 | 1528.58 | 1523.04 | 1517.43
x1 = 0.8853 | 1569.6 | 1564.14 | 1558.67 | 1553.16 | 1547.65 | 1542.09 | 1536.51

CCCC[N+]1(C)CCCC1.FC(F)(F)C(F)(F)[P-](F)(F)(F)(C(F)(F)C(F)(F)F)C(F)(F)C(F)(F)F + CNC=O
mass density [kg/m3]
Conditions | 293.15 K | 298.15 K | 303.15 K | 308.15 K | 313.15 K | 318.15 K | 323.15 K
x1 = 0.017 | 1058.37 | 1053.77 | 1049.14 | 1044.53 | 1039.79 | 1035.11 | 1030.3
x1 = 0.038 | 1115.08 | 1110.31 | 1105.47 | 1100.72 | 1095.79 | 1091 | 1085.98
x1 = 0.064 | 1172.33 | 1167.39 | 1162.43 | 1157.5 | 1152.45 | 1147.53 | 1142.27
x1 = 0.1395 | 1288.62 | 1283.34 | 1278.09 | 1272.85 | 1267.61 | 1262.38 | 1256.78
x1 = 0.1994 | 1349.8 | 1344.44 | 1339.03 | 1333.6 | 1328.11 | 1322.58 | 1317.13
x1 = 0.2991 | 1419.35 | 1413.93 | 1408.4 | 1402.86 | 1397.22 | 1391.56 | 1385.88
x1 = 0.4005 | 1466.49 | 1460.95 | 1455.39 | 1449.79 | 1444.2 | 1438.48 | 1432.75
x1 = 0.5044 | 1501.13 | 1495.58 | 1490.07 | 1484.49 | 1478.87 | 1473.25 | 1467.48
x1 = 0.5964 | 1524.64 | 1519.12 | 1513.49 | 1507.92 | 1502.28 | 1496.79 | 1491.13
x1 = 0.6471 | 1535.54 | 1530.04 | 1524.39 | 1518.85 | 1513.18 | 1507.72 | 1502.01
x1 = 0.7548 | 1555.34 | 1549.77 | 1544.13 | 1538.58 | 1532.92 | 1527.43 | 1521.8
x1 = 0.8413 | 1568.65 | 1563.05 | 1557.45 | 1551.88 | 1546.25 | 1540.73 | 1535.12
x1 = 0.9029 | 1577.04 | 1571.47 | 1565.91 | 1560.34 | 1554.73 | 1549.18 | 1543.58
